Source: article PMC9863764, “Roles of Human Liver Cytochrome P450 Enzymes in Tenatoprazole Metabolism” (Pharmaceutics, 2022)
Values joined by “and” are separate entries in the source; they are usually repeats but may differ in a detail not shown here. Equal entries are not always repeated. Each block holds one molecule with its values, some of them ahead of it.

How the values were obtained:
Type in all cases: in vitro ADME
human CYP3A4 [1] = biological target: T1, human CYP3A4 (Homo sapiens, UniProt P08684); experiment: Steady-state kinetics of tenatoprazole oxidation by recombinant CYP3A4; settings: 30 min incubation, LC-QTOF-MS
T1 construct: made in house; host or cells: Escherichia coli (membrane fractions)
T1 sequence (P08684 whole entry): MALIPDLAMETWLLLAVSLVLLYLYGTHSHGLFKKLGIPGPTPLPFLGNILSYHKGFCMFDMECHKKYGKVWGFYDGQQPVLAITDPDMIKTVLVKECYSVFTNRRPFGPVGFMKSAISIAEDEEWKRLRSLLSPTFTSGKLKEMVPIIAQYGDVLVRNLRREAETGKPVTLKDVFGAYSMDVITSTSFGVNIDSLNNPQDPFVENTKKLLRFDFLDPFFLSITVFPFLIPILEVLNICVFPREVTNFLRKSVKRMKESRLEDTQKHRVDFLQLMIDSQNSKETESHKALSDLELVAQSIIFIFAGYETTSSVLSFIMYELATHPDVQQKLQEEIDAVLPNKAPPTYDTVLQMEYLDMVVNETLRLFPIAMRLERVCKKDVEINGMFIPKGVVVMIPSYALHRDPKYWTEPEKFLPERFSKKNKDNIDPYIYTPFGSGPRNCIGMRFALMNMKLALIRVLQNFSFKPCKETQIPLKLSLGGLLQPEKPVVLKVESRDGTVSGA
Procedure: Pooled liver microsomes from human samples were obtained from ThermoFisher Scientific (Waltham, MA, USA). […] Membrane fractions expressing both P450 and CPR of E. coli were prepared as described previously and were used for the catalytic activity assays. […] The reaction was started by adding NGS and the incubation was continued for the indicated time at 37 °C. Incubation was then stopped by adding ice-chilled ethyl acetate (0.50 mL) and omeprazole (IS) was added to a final concentration of 20 μM. […] Phenomenex, Torrance, CA, USA). The products formed were analyzed by HPLC at […]. The HPLC profile of the authentic chemicals (i.e., tenatoprazole, tenatoprazole sulfide, and their metabolites) were used to identify the major metabolites of tenatoprazole and tenatoprazole sulfide produced by the recombinant P450s. […] The kinetic parameters (kcat and Km) were determined by using a Michaelis-Menten nonlinear regression analysis with GraphPad Prism (GraphPad Software, San Diego, CA, USA). To further characterize the nature of the metabolites, the reaction mixtures were additionally analyzed by a 6530 Quadrupole Time-of-Flight (QTOF) mass spectrometer (MS) (Agilent, Santa Clara, CA, USA) coupled with a 1290 Infinity ultra-performance liquid chromatography (UPLC) system (Agilent). […] The reaction was initiated by adding NGS at 37 °C. […] Then, the upper layer was transferred to a glass tube and dried under nitrogen stream. The residues were reconstituted in 0.30 mL acetonitrile, then 1 μL samples were injected into an LC-MS system. The analytical column was a Hypersil Gold C18 column (100 × 2.1 mm, 1.9 μm; ThermoFisher Scientific). […] A gradient program was used for HPLC separation, and the flow rate was 0.4 mL/min. […] The column and autosampler were kept at 35 °C and 4 °C, respectively, during analysis. Electrospray ionization was performed in the positive ion mode. The sheath gas flow rate was 8 L/min. The flow rate of drying gas was 12 L/min at 350 °C, and the nebulizer's temperature was set at 350 °C. The capillary voltage was 4500 V in the positive mode, and that of the fragmentor was 175 V. Data acquisition were done over a scan range from 50 m/z to 1000 m/z in the centroid mode. A reference compound (C18H18O6N3P3F24; [M+H]^+ = 922.0098) was used to correct all of the masses. Tandem mass spectrometry (MS/MS) data were acquired in profile mode via autoanalysis for structural characterization with 30 eV of the collision energy.

human CYP3A4 [2] = biological target: T1, human CYP3A4; experiment: Sulfoxidation of tenatoprazole sulfide by recombinant CYP3A4 (chiral chromatography)
Procedure: The sulfoxidation reaction of tenatoprazole sulfide by CYP3A4 was measured by chiral chromatography. […] The reaction was initiated by adding NGS at 37 °C. […] After the residues were solubilized in 180 μL mobile phase, 30 μL samples were injected onto a Chiralpak AD column (4.6 × 150 mm, 10 μm; Daicel Corporation, Osaka, Japan) with a hexane-ethanol mixture (30:70, v/v) as the mobile phase. The products formed were analyzed by HPLC at […]. […] The kinetic parameters (kcat and Km) were determined by using a Michaelis-Menten nonlinear regression analysis with GraphPad Prism (GraphPad Software, San Diego, CA, USA).

[3] = tested on: human liver microsomes (HLMs); experiment: Time course of oxidation of tenatoprazole and tenatoprazole sulfide by human liver microsomes (HPLC); settings: human, 12 h, 500 μM, pH 7.4
Procedure: A racemate of tenatoprazole was used in this work because the chiral tenatoprazoles currently are not commercially available. The reactions using HLMs contained incubation at 37 °C in 0.25 mL mixtures containing P450 (0.5 mg protein/mL) in 100 mM potassium phosphate buffer (pH 7.4), an NADPH-generating system (NGS, final concentration of 10 mM glucose-6-phosphate, 0.50 mM NADP^+, 1.0 IU yeast glucose-6-phosphate dehydrogenase per mL), and 0.1 mM of tenatoprazole or tenatoprazole sulfide. Incubations generally were performed for 2 h in the presence or absence of the NGS. Tenatoprazole and its metabolites were extracted twice using cold ethyl acetate as an organic solvent. Then centrifugation (1000× g, 20 min) was done to separate the organic layer from the aqueous layer. Omeprazole was added to this solution as an internal standard (IS) at a final 20 μM concentration. The organic layer was concentrated under nitrogen gas stream. The dried residues were then dissolved in the mobile phase (180 μL) and 30 μL was injected onto the column.
High-performance liquid chromatography (HPLC) was performed on the basis of a previously developed method for tenatoprazole and its metabolites, as described elsewhere. The analytical column was a Gemini C18 column (4.6 × 150 mm, 5 μm; Phenomenex), and the HPLC mobile phase consisted of acetonitrile and 5 mM potassium phosphate buffer (pH 7.3) (25:75, v/v). The substrate and its metabolites were detected at A302. The HPLC profile of the authentic compounds (i.e., tenatoprazole and its metabolites) were measured to compare to identify the major metabolites of tenatoprazole and tenatoprazole sulfide produced by HLMs.
The time course of the oxidation of tenatoprazole and tenatoprazole sulfide by HLMs (0.5 mg protein/mL) was analyzed to the estimated yield of metabolites and percentage of each metabolite using 0.60 mM substrate in 0.25 mL of 0.10 M potassium phosphate buffer (pH 7.4). After NGS was added to initiate the reaction, the samples were incubated for the designated time (i.e., 2, 5, 10, and 30 min, and 1, 2, 4, 8, 12, and 24 h) at 37 °C. Product formation was quantified using HPLC analysis, as mentioned above.
Calibration standard curves of tenatoprazole were made using a blank control sample (a reaction mixture without substrate and IS) and 12 samples containing tenatoprazole and omeprazole (IS) covering the concentration ranges of 1–500 μM, as described previously. The peak area ratio of tenatoprazole to IS was linear with respect to the analyte concentration over the range of 1–500 μM. The metabolites were quantified by comparing the peak areas of each metabolite to the mean peak areas of the IS (20 μM omeprazole).

Compound: COc1ccc2[nH]c(SCc3c(C)c(OC)c(CO)c[n+]3[O-])nc2n1 [1′-N-oxy-5′-OH tenatoprazole sulfide, 1′-N-oxy-5′-hydroxytenatoprazole sulfide]
amount of metabolite observed in CYP3A4-catalyzed reaction (human CYP3A4 [1]): only trace amounts

Compound: COc1ccc2[nH]c([S@+]([O-])Cc3ncc(C)c(OC)c3C)nc2n1 [R-tenatoprazole]
fold higher catalytic efficiency of R-tenatoprazole formation than S-tenatoprazole formation (human CYP3A4 [2]; substrate tenatoprazole sulfide, CYP3A4): 1.7 fold
kcat of product formation (human CYP3A4 [2]; substrate tenatoprazole sulfide, recombinant CYP3A4, chiral chromatography, label = product formed): 0.0667 s⁻¹ and 0.0667 ± 0.005 s⁻¹

conversion yield to tenatoprazole sulfide [3]: 94.8%
tenatoprazole sulfide remained ([3]; microsomes): More than 99%
sulfoxidation activity to produce tenatoprazole (human CYP3A4 [2]; recombinant CYP3A4, substrate tenatoprazole sulfide): showed the sulfoxidation activity
Compound: COc1ccc2[nH]c(SCc3ncc(C)c(OC)c3C)nc2n1 [tenatoprazole sulfide, Tenatoprazole sulfide]
